# Tested on: clinically stable subjects with schizophrenia
# Assay: Clinical Study A (Phase 2a, placebo-controlled): MATRICS Consensus Cognitive Battery (MCCB)
# Format: in vivo, human
# Source text: A Phase 2a proof-of-concept (POC) study in clinically stable subjects with schizophrenia who were clinically stable and received stable doses of atypical antipsychotic therapy. The study was a Phase 2, multi-center, randomized, double-blind, placebo-controlled, parallel group study designed to evaluate the safety and efficacy of doses of (4s)-4-(5-phenyl-1,3,4-thiadiazol-2-yloxy)-1-azatricyclo[3.3.1.1^3,7]decane (Compound A) in clinically stable male and female subjects (ages 20 to 55, inclusive) with a Diagnostic and Statistical Manual of Mental Disorders Fourth Edition, Text Revision (DSM-IV-TR) diagnosis of schizophrenia. Psychiatric diagnoses were confirmed using the Mini-International Neuropsychiatric Interview (MINI) version 6.0.0. The criteria for clinical stability was determined by a combination of retrospective data (over the 4 months prior to the start of Screening, which will be supported by clinical records, patient, identified responsible contact person, and physician interviews), and prospective data assessed during the Prospective Stabilization Period of 28 to 42 days duration.
# The study was a Phase 2, multi-center, randomized, double-blind, placebo-controlled, parallel group study designed to evaluate the safety and efficacy of doses of (4s)-4-(5-phenyl-1,3,4-thiadiazol-2-yloxy)-1-azatrieyclo[3.3.1.1^3,7]decane, which is also recognized as Compound A, in treating cognitive deficits in subjects with schizophrenia who were clinically stable and receiving one or two atypical antipsychotic medications. Study drug was administered orally.
# The study consisted of a screening period of at least 28 and up to 42 days, a 84-day outpatient treatment period, a 14-day post-treatment period, and a post-treatment follow-up period. The screening period consisted of three visits: Screening Visit 1, Screening Visit 2, and Day −1. Upon completion of Day −1 procedures, eligible subjects were randomized through an Interactive Voice Response/Interactive Web-Based (IVR/IWB) system. Subjects were randomized in an equal ratio to one of three treatment groups (placebo, 10 mg Compound A, or 25 mg Compound A).
# Subjects were randomized in a 1:1:1 ratio with placebo, 10 mg QD Compound A, of 25 mg Compound A. Each subject was instructed to take study drug once-daily in the morning for 12 weeks. Each daily dose was preferably taken with food. The subject and investigator were blinded to the treatment assignment throughout the study. The treatment assignments for the study subjects are shown below in Table 1.
# The primary endpoint was the MCCB composite score, and the primary endpoint analysis was the change on the MCCB composite score from baseline to endpoint versus placebo. Other secondary measures included the MCCB domains, the NSA-16, the CANTAB cognition battery (measured at different time points from the MCCB), and the UPSA-2. The Positive and Negative Syndrome Scale (PANSS) was included to document stability in schizophrenia symptomatology.
# The MCCB was developed by a consortium of academic, industry, the Food and Drug Administration (FDA) and National Institute of Mental Health ([…]) members called Measurement and Treatment Research to Improve Cognition in Schizophrenia (MATRICS). The battery was established in a multiple phase process that involved experts identifying cognitive tests in the literature that had shown deficits in schizophrenia, use of factor analysis to identify key domains of cognitive deficits in schizophrenia, and then empirically identifying the best tests for each domain based on reliability, validity and feasibility for use in clinical trials. The FDA has endorsed the MCCB as an appropriate outcome measure for Phase 3 CDS trials. […]
# [1] = 25 mg QD, Change to Week 2, ITT
# [2] = 25 mg QD, Change to Week 6, ITT
# [3] = 25 mg QD, Change to Week 12, ITT
smiles,measurement,setting,value
"c1ccc(-c2nnc(O[C@@H]3C4CC5C[C@H]3C[N@](C5)C4)s2)cc1 [Compound A, (4s)-4-(5-phenyl-1,3,4-thiadiazol-2-yloxy)-1-azatricyclo[3.3.1.1^3,7]decane]",MCCB Reasoning and Problem Solving: LS Mean (SE) of Change from Baseline,[1],1.95 (0.92) T-score
same,MCCB Reasoning and Problem Solving: Observed Mean (SD) of change from baseline,[1],2.00 (6.25) T-score
same,MCCB Attention/Vigilance: Difference from Placebo LS Mean (SE) of Difference,[2],1.71 (1.41) T-score
same,MCCB Attention/Vigilance: LS Mean (SE) of Change from Baseline,[2],0.91 (1.06) T-score
same,MCCB Attention/Vigilance: Observed Mean (SD) of change from baseline,[2],1.09 (9.04) T-score
same,MCCB Reasoning and Problem Solving: Difference from Placebo LS Mean (SE) of Difference,[2],2.22 (1.08) T-score
same,MCCB Reasoning and Problem Solving: LS Mean (SE) of Change from Baseline,[2],2.18 (0.81) T-score
same,MCCB Reasoning and Problem Solving: Observed Mean (SD) of change from baseline,[2],2.11 (7.06) T-score
same,MCCB Social Cognition: Difference from Placebo LS Mean (SE) of Difference,[2],−1.21 (1.40) T-score
same,MCCB Social Cognition: LS Mean (SE) of Change from Baseline,[2],0.30 (1.05) T-score
same,MCCB Social Cognition: Observed Mean (SD) of change from baseline,[2],0.06 (8.00) T-score
same,MCCB Speed of Processing: Difference from Placebo LS Mean (SE) of Difference,[2],1.84 (1.08) T-score
same,MCCB Speed of Processing: LS Mean (SE) of Change from Baseline,[2],2.24 (0.80) T-score
same,MCCB Speed of Processing: Observed Mean (SD) of change from baseline,[2],2.56 (5.36) T-score
same,MCCB Verbal Learning: Difference from Placebo LS Mean (SE) of Difference,[2],0.49 (1.18) T-score
same,MCCB Verbal Learning: LS Mean (SE) of Change from Baseline,[2],0.56 (0.88) T-score
same,MCCB Verbal Learning: Observed Mean (SD) of change from baseline,[2],0.41 (9.24) T-score
same,MCCB Visual Learning: Difference from Placebo LS Mean (SE) of Difference,[2],−1.00 (1.65) T-score
same,MCCB Visual Learning: LS Mean (SE) of Change from Baseline,[2],−1.15 (1.22) T-score
same,MCCB Visual Learning: Observed Mean (SD) of change from baseline,[2],−1.06 (9.04) T-score
same,MCCB Working Memory: Difference from Placebo LS Mean (SE) of Difference,[2],2.39 (1.08) T-score
same,MCCB Working Memory: LS Mean (SE) of Change from Baseline,[2],1.88 (0.81) T-score
same,MCCB Working Memory: Observed Mean (SD) of change from baseline,[2],1.69 (7.43) T-score
same,MCCB Attention/Vigilance: Difference from Placebo LS Mean (SE) of Difference,[3],2.85 (1.57) T-score
same,MCCB Attention/Vigilance: LS Mean (SE) of Change from Baseline,[3],0.86 (1.16) T-score
same,MCCB Attention/Vigilance: Observed Mean (SD) of change from baseline,[3],0.88 (9.09) T-score
same,MCCB Social Cognition: Difference from Placebo LS Mean (SE) of Difference,[3],−0.40 (1.61) T-score
same,MCCB Social Cognition: LS Mean (SE) of Change from Baseline,[3],0.19 (1.19) T-score
same,MCCB Social Cognition: Observed Mean (SD) of change from baseline,[3],−0.14 (10.81) T-score
same,MCCB Speed of Processing: Difference from Placebo LS Mean (SE) of Difference,[3],0.37 (1.26) T-score
same,MCCB Speed of Processing: LS Mean (SE) of Change from Baseline,[3],1.66 (0.93) T-score
same,MCCB Speed of Processing: Observed Mean (SD) of change from baseline,[3],1.73 (7.28) T-score
same,MCCB Verbal Learning: Difference from Placebo LS Mean (SE) of Difference,[3],1.80 (1.17) T-score
same,MCCB Verbal Learning: LS Mean (SE) of Change from Baseline,[3],2.27 (0.87) T-score
same,MCCB Verbal Learning: Observed Mean (SD) of change from baseline,[3],2.24 (8.03) T-score
same,MCCB Visual Learning: Difference from Placebo LS Mean (SE) of Difference,[3],1.27 (1.68) T-score
same,MCCB Visual Learning: LS Mean (SE) of Change from Baseline,[3],0.83 (1.23) T-score
same,MCCB Visual Learning: Observed Mean (SD) of change from baseline,[3],1.24 (8.49) T-score
same,MCCB Working Memory: Difference from Placebo LS Mean (SE) of Difference,[3],2.03 (1.25) T-score
same,MCCB Working Memory: LS Mean (SE) of Change from Baseline,[3],2.14 (0.93) T-score
same,MCCB Working Memory: Observed Mean (SD) of change from baseline,[3],1.98 (6.84) T-score
same,MCCB composite score: LS mean change from baseline,"25 mg, baseline to Week 6, MNIRIVI analysis, placebo LS mean +0.49",+1.27
same,MCCB domains with LS mean difference versus placebo greater in both dose groups,"Week 6, 10 mg and 25 mg",5 of the 7 MCCB domains
same,MCCB composite score: statistical significance of difference from placebo,"each dose group (10 mg, 25 mg), Week 6",did not reach the level of statistical significance
same,Effect on cognition,"patients with schizophrenia, summary statement",precognitive effects
